Measurements from the NIST ThermoML archive (doi:10.1016/j.jct.2014.02.021).
Values joined by “and” are separate entries in the source; they are usually repeats but may differ in a detail not shown here. Identical values can stand only once.

Legend:
[1] = 298.15 K; 101 kPa; Liquid; Vibrating tube method
[2] = xn = mol fraction of the nth substance listed; details: 298.15 K, 101 kPa, Liquid, Vibrating tube method

CC1COC(=O)O1 (configuration not stated) [4-methyl-1,3-dioxolan-2-one]
Details | mass density [kg/m3]
[1] | 1199.49

CC1COC(=O)O1 (configuration not stated) [4-methyl-1,3-dioxolan-2-one] + CO
[2]
Details | mass density [kg/m3]
x1 = 0.0484 | 828.25
x1 = 0.0497 | 828.25
x1 = 0.051 | 829.62
x1 = 0.0987 | 871.34
x1 = 0.0991 | 870.05
x1 = 0.0999 | 869.111
x1 = 0.1972 | 932.83
x1 = 0.1991 | 936.46
x1 = 0.2001 | 939.29
x1 = 0.3942 | 1035.57
x1 = 0.3998 | 1021.45
x1 = 0.4001 | 1037.34
x1 = 0.4998 | 1069.62
x1 = 0.5022 | 1072.85
x1 = 0.505 | 1072.84
x1 = 0.598 | 1103.43
x1 = 0.6017 | 1106.39
x1 = 0.6049 | 1103.9
x1 = 0.7939 | 1159.25
x1 = 0.7979 | 1159.25
x1 = 0.8009 | 1158.72
x1 = 0.9 | 1179.23
x1 = 0.9011 | 1179.68
x1 = 0.9031 | 1179.23
x1 = 1 | 1199.49

CC#N [acetonitrile]
Details | mass density [kg/m3]
[1] | 776.615

CC#N [acetonitrile] + CO
[2]
Details | mass density
x1 = 0.0992 | 787.14 kg/m3
x1 = 0.1002 | 787.104 kg/m3
x1 = 0.1075 | 787.149 kg/m3
x1 = 0.197 | 786.692 kg/m3
x1 = 0.1984 | 786.63 kg/m3
x1 = 0.2008 | 786.647 kg/m3
x1 = 0.4002 | 784.701 kg/m3
x1 = 0.4004 | 784.66 kg/m3
x1 = 0.4013 | 784.644 kg/m3
x1 = 0.465 | 784.22 kg/m3
x1 = 0.4653 | 784.25 kg/m3
x1 = 0.5041 | 783.427 kg/m3
x1 = 0.5042 | 783.347 kg/m3
x1 = 0.5047 | 783.356 kg/m3
x1 = 0.601 | 782.103 kg/m3 and 782.009 kg/m3
x1 = 0.6056 | 781.935 kg/m3
x1 = 0.7992 | 779.248 kg/m3
x1 = 0.8012 | 779.292 kg/m3
x1 = 0.8067 | 779.242 kg/m3
x1 = 0.9007 | 777.825 kg/m3
x1 = 0.9044 | 777.935 kg/m3
x1 = 0.9049 | 777.896 kg/m3
x1 = 0.9358 | 777.391 kg/m3
x1 = 0.9376 | 777.347 kg/m3
x1 = 0.9382 | 777.385 kg/m3
x1 = 1 | 776.615 kg/m3

CN(C)C=O [dimethylformamide]
Details | mass density [kg/m3]
[1] | 943.974

CN(C)C=O [dimethylformamide] + CO
[2]
Details | mass density
x1 = 0.0496 | 803.451 kg/m3
x1 = 0.0502 | 803.39 kg/m3
x1 = 0.0511 | 803.056 kg/m3
x1 = 0.0991 | 818.484 kg/m3
x1 = 0.1021 | 818.46 kg/m3
x1 = 0.1084 | 818.189 kg/m3
x1 = 0.1981 | 843.566 kg/m3
x1 = 0.1988 | 843.761 kg/m3
x1 = 0.2004 | 843 kg/m3
x1 = 0.4022 | 882.138 kg/m3 and 881.976 kg/m3
x1 = 0.4054 | 881.38 kg/m3
x1 = 0.4986 | 896.174 kg/m3
x1 = 0.5002 | 894.978 kg/m3
x1 = 0.5013 | 896.278 kg/m3
x1 = 0.5982 | 909.277 kg/m3
x1 = 0.6008 | 908.588 kg/m3
x1 = 0.6031 | 909.254 kg/m3
x1 = 0.7998 | 928.355 kg/m3
x1 = 0.8028 | 928.308 kg/m3
x1 = 0.8054 | 928.317 kg/m3
x1 = 0.8997 | 936.786 kg/m3
x1 = 0.9033 | 936.655 kg/m3
x1 = 0.9039 | 936.718 kg/m3
x1 = 1 | 943.974 kg/m3

CO [methanol]
Details | mass density [kg/m3]
[1] | 786.58

CO [methanol] + CC1COC(=O)O1
Details | mass density [kg/m3]
[2], x2 = 0 | 786.58

CO [methanol] + CC#N
Details | mass density [kg/m3]
[2], x2 = 0 | 786.58

CO [methanol] + CN(C)C=O
Details | mass density [kg/m3]
[2], x2 = 0 | 786.58
